Reference: the supplement of paper PMC11061612

Key:
Test in all cases: combination Emax (second highest fraction inhibited in the dose matrix, 72 h); higher = more inhibition; extreme values may be limits of the assay
[1] = test system: 22RV1 (Prostate Carcinoma)
How it was run: (§1)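 After 24 hours at 37°C and 5% CO2 in 1536-well plates, cells in DMEM/F12 or RPMI plus 10% FBS received two-drug dose matrices for 72 hours. Viability came from CellTiter-Glo 2.0 luminescence and was scaled as inhibition, anchored at 0 by vehicle wells and at 1 by blank wells. Combination Emax is taken as the second-highest inhibition in the matrix, and Bliss excess as the observed combination effect less EA + EB − EA·EB, with EA and EB the single-agent effects.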

[2] = test system: A253 (Head and Neck Carcinoma)
How it was run: as §1

[3] = test system: COLO-792 (Melanoma)
How it was run: as §1

[4] = test system: DU-4475 (Breast Carcinoma)
How it was run: as §1

[5] = test system: EB2 (Burkitt's Lymphoma)
How it was run: as §1

[6] = test system: EW-16 (Ewing's Sarcoma)
How it was run: as §1

[7] = test system: G-402 (Other Solid Carcinomas)
How it was run: as §1

[8] = test system: GA-10 (Burkitt's Lymphoma)
How it was run: as §1

[9] = test system: GCT (Other Solid Carcinomas)
How it was run: as §1

[10] = test system: IM-9 (Non-Cancerous)
How it was run: as §1

[11] = test system: JHH-2 (Hepatocellular Carcinoma)
How it was run: as §1

[12] = test system: Jurkat (T-Lymphoblastic Leukemia)
How it was run: as §1

[13] = test system: KP-N-YN (Neuroblastoma)
How it was run: as §1

[14] = test system: LU-165 (Small Cell Lung Carcinoma)
How it was run: as §1

[15] = test system: NCI-H441 (Lung Adenocarcinoma)
How it was run: as §1

[16] = test system: NCI-H716 (Colorectal Carcinoma)
How it was run: as §1

[17] = test system: OACp4C (Esophageal Adenocarcinoma)
How it was run: as §1

[18] = test system: PEO1 (Ovarian Carcinoma)
How it was run: as §1

[19] = test system: RH-41 (Rhabdomyosarcoma)
How it was run: as §1

[20] = test system: huH-1 (Hepatocellular Carcinoma)
How it was run: as §1

Row | Structure (SMILES) | combination Emax [1] | combination Emax [2] | combination Emax [3] | combination Emax [4] | combination Emax [5] | combination Emax [6] | combination Emax [7] | combination Emax [8] | combination Emax [9] | combination Emax [10] | combination Emax [11] | combination Emax [12] | combination Emax [13] | combination Emax [14] | combination Emax [15] | combination Emax [16] | combination Emax [17] | combination Emax [18] | combination Emax [19] | combination Emax [20]
1 | Cn1cnc2c(F)c(Nc3ccc(Br)cc3Cl)c(C(=O)NOCCO)cc21 [Selumetinib] + C=CCn1c(=O)c2cnc(Nc3ccc(N4CCN(C)CC4)cc3)nc2n1-c1cccc(C(C)(C)O)n1 [AZD1775] (first compound max 10 µM, partner max 1 µM) | 0.406 | 0.336 | 0.694 | 1 | 0.785 | 0.402 | 0.483 | 1 | 0.384 | 1 | 0.536 | 0.875 | 0.936 | 0.261 | 0.41 | 0.428 | 0.909 | 0.335 | 0.974 | 0.48
2 | Cn1cnc2c(F)c(Nc3ccc(Br)cc3Cl)c(C(=O)NOCCO)cc21 [Selumetinib] + CC(C)n1c(=O)n(C)c2cnc3cc(F)c(-c4ccc(OCCCN5CCCCC5)nc4)cc3c21 [AZD1390] (first compound max 10 µM, 7x7, partner max 0.3 µM) | 0.307 | 0.18 | 0.498 | 1 | 0.0739 | 0.134 | 0.222 | 0.165 | 0.287 | 0.796 | 0.315 | 0.124 | 0.398 | 0.213 | 0.221 | 0.452 | 0.43 | 0.266 | 0.131 | 0.107
3 | Cn1cnc2c(F)c(Nc3ccc(Br)cc3Cl)c(C(=O)NOCCO)cc21 [Selumetinib] + CCN(CCO)CCCOc1ccc2c(Nc3cc(CC(=O)Nc4cccc(F)c4)[nH]n3)ncnc2c1 [AZD2811] (first compound max 10 µM, 7x7, partner max 1 µM) | 0.383 | 0.348 | 0.51 | 1 | 0.182 | 0.551 | 0.578 | 0.7 | 0.384 | 0.995 | 0.325 | 0.203 | 0.581 | 0.158 | 0.304 | 0.428 | 0.838 | 0.29 | 0.309 | 0.307
4 | Cn1cnc2c(F)c(Nc3ccc(Br)cc3Cl)c(C(=O)NOCCO)cc21 [Selumetinib] + C[C@@H]1COCCN1C2=NC(=NC(=C2)C3(CC3)[S@](=N)(=O)C)C4=C5C=CNC5=NC=C4 [AZD6738] (first compound max 10 µM, 7x7, partner max 10 µM) | 0.526 | 0.636 | 0.589 | 1 | 0.755 | 0.587 | 0.645 | 0.977 | 0.373 | 0.981 | 0.641 | 0.913 | 0.949 | 0.304 | 0.36 | 0.577 | 0.856 | 0.441 | 0.736 | 0.537
5 | CC(=O)Nc1cccc(-n2c(=O)n(C3CC3)c(=O)c3c(Nc4ccc(I)cc4F)n(C)c(=O)c(C)c32)c1 [Trametinib] + Cc1nc(-c2cn3c(n2)-c2ccc(-c4cnn(C(C)(C)C(N)=O)c4)cc2OCC3)n(C(C)C)n1 [Taselisib] (first compound max 1 µM, 7x7, partner max 10 µM) | 0.704 | 0.954 | 1 | 1 | 0.593 | 0.604 | 0.792 | 0.682 | 0.764 | 0.941 | 1 | 0.692 | 0.528 | 0.373 | 0.639 | 0.977 | 1 | 0.825 | 1 | 0.688
6 | CC1(C)CCC(CN2CCN(c3ccc(C(=O)NS(=O)(=O)c4ccc(NCC5CCOCC5)c([N+](=O)[O-])c4)c(Oc4cnc5[nH]ccc5c4)c3)CC2)=C(c2ccc(Cl)cc2)C1 [Venetoclax] + C1CN(CCC1(C(=O)N[C@@H](CCO)C2=CC=C(C=C2)Cl)N)C3=NC=NC4=C3C=CN4 [Capivasertib] (first compound max 1 µM, 7x7, partner max 3 µM) | 0.484 | 0.463 | 0.381 | 0.246 | 0.795 | 0.236 | 0.425 | 0.584 | 0.426 | 0.632 | 0.625 | 0.639 | 0.573 | 0.269 | 0.326 | 0.287 | 0.634 | 0.19 | 0.945 | 0.2
7 | CC1(C)CCC(CN2CCN(c3ccc(C(=O)NS(=O)(=O)c4ccc(NCC5CCOCC5)c([N+](=O)[O-])c4)c(Oc4cnc5[nH]ccc5c4)c3)CC2)=C(c2ccc(Cl)cc2)C1 [Venetoclax] + C=CCn1c(=O)c2cnc(Nc3ccc(N4CCN(C)CC4)cc3)nc2n1-c1cccc(C(C)(C)O)n1 [AZD1775] (first compound max 1 µM, partner max 1 µM) | 0.513 | 0.313 | 0.399 | 1 | 0.932 | 0.526 | 0.435 | 1 | 0.431 | 0.992 | 0.882 | 0.907 | 0.981 | 0.364 | 0.489 | 0.377 | 0.897 | 0.337 | 1 | 0.501
8 | CC1(C)CCC(CN2CCN(c3ccc(C(=O)NS(=O)(=O)c4ccc(NCC5CCOCC5)c([N+](=O)[O-])c4)c(Oc4cnc5[nH]ccc5c4)c3)CC2)=C(c2ccc(Cl)cc2)C1 [Venetoclax] + CCN(CCO)CCCOc1ccc2c(Nc3cc(CC(=O)Nc4cccc(F)c4)[nH]n3)ncnc2c1 [AZD2811] (first compound max 1 µM, 7x7, partner max 1 µM) | 0.232 | 0.268 | 0.446 | 0.404 | 0.677 | 0.714 | 0.667 | 0.598 | 0.273 | 0.976 | 0.27 | 0.2 | 0.913 | 0.161 | 0.365 | 0.198 | 0.665 | 0.252 | 0.418 | 0.191
9 | CC1(C)CCC(CN2CCN(c3ccc(C(=O)NS(=O)(=O)c4ccc(NCC5CCOCC5)c([N+](=O)[O-])c4)c(Oc4cnc5[nH]ccc5c4)c3)CC2)=C(c2ccc(Cl)cc2)C1 [Venetoclax] + CN(C)CCCOc1ccc(-c2ccc3ncc4c(c3c2)n(C2CCOCC2)c(=O)n4C)cn1 [AZD0156] (first compound max 1 µM, 7x7, partner max 1 µM) | 0.423 | 0.178 | 0.245 | 0.0995 | 0.736 | 0.19 | 0.359 | 0.278 | 0.289 | 0.812 | 0.334 | 0.161 | 0.528 | 0.164 | 0.25 | 0.0954 | 0.224 | 0.134 | 0.491 | 0.171
10 | CC1(C)CCC(CN2CCN(c3ccc(C(=O)NS(=O)(=O)c4ccc(NCC5CCOCC5)c([N+](=O)[O-])c4)c(Oc4cnc5[nH]ccc5c4)c3)CC2)=C(c2ccc(Cl)cc2)C1 [Venetoclax] + COc1cc(Nc2ncc3c(n2)-c2ccc(Cl)cc2C(c2c(F)cccc2OC)=NC3)ccc1C(=O)O [Alisertib] (first compound max 1 µM, 7x7, partner max 10 µM) | 0.329 | 0.444 | 0.405 | 0.807 | 0.803 | 0.726 | 0.57 | 0.995 | 0.463 | 1 | 0.525 | 0.741 | 0.827 | 0.241 | 0.343 | 0.82 | 0.72 | 0.276 | 0.765 | 0.257
11 | CC1(C)CCC(CN2CCN(c3ccc(C(=O)NS(=O)(=O)c4ccc(NCC5CCOCC5)c([N+](=O)[O-])c4)c(Oc4cnc5[nH]ccc5c4)c3)CC2)=C(c2ccc(Cl)cc2)C1 [Venetoclax] + C[C@@H]1COCCN1C2=NC(=NC(=C2)C3(CC3)[S@](=N)(=O)C)C4=C5C=CNC5=NC=C4 [AZD6738] (first compound max 1 µM, 7x7, partner max 10 µM) | 0.599 | 0.804 | 0.316 | 1 | 0.844 | 0.792 | 0.705 | 0.976 | 0.334 | 0.995 | 0.697 | 0.921 | 0.999 | 0.441 | 0.454 | 0.436 | 0.711 | 0.48 | 0.855 | 0.597
12 | CC1(C)CCC(CN2CCN(c3ccc(C(=O)NS(=O)(=O)c4ccc(NCC5CCOCC5)c([N+](=O)[O-])c4)c(Oc4cnc5[nH]ccc5c4)c3)CC2)=C(c2ccc(Cl)cc2)C1 [Venetoclax] + C[C@@H](Nc1cc(F)cc(F)c1)c1cc(C(=O)N(C)C)cc2c(=O)cc(N3CCOCC3)oc12 [AZD8186] (first compound max 1 µM, 7x7, partner max 3 µM) | 0.322 | 0.103 | 0.328 | 0.262 | 0.746 | 0.17 | 0.29 | 0.617 | 0.32 | 0.573 | 0.806 | 0.271 | 0.569 | 0.219 | 0.184 | 0.225 | 0.31 | 0.0947 | 0.491 | 0.152
